The values below come from patent US4761422A, “(2-amino-4-aryl-thiazole-5-yl)ethanols and their derivatives having diuretic activity and methods for preparing the same” (Lusofarmaco Istituto Lusofarmaco d'Italia SpA, priority 1986, dated 1988).

One may read the LD50 as the dose expected to kill half of the subjects tested. Low values mean greater toxicity, high ones lower toxicity.

Series [1] can be described thus: Diuretic activity in rat (DA200, dosage causing doubling of the urinary volume), method of Fregnan et al. It counts as in vivo. To be noted: po, os. The source says:
The diuretic activity has been determined according to the method by G. B. Fregnan et al., Gazzetta Medica Italiana 128, 384 (1969).
In the Table given hereinbelow the pharmacological data of some of the compounds according to the invention in comparison with thienyl acid are set forth.
*Dosage causing doubling of the urinary volume

Series [2] in a line: Acute toxicity in rat (DL50). The note with it: in vivo, ip.

Molecules are shown by their SMILES.

In turn, `CNc1nc(-c2ccc(Cl)cc2)c(CCOC(N)=O)s1` [LR 892, 2-[2-methylamino-4-(p-chlorophenyl)thiazole-5-yl]ethanol carbamate] yielded an ED (doubling of urinary volume) in series [1] of 10 mg/kg. In series [2], this molecule displayed an LD50 above 1000 mg/kg.

`Nc1nc(-c2ccc(Cl)cc2)c(CCO)s1` [LR 409, 2-[2-amino-4-(p-chlorophenyl)thiazole-5-yl]ethanol]: the ED (doubling of urinary volume) in series [1] stood at 30 mg/kg. Besides, the median lethal dose (LD50) in series [2] is 280 mg/kg.

In the case of `CCN(CC)c1nc(-c2ccc(Cl)cc2)c(CCOC(N)=O)s1` [LR 525, 2-[2-diethylamino-4-(p-chlorophenyl)thiazole-5-yl]ethanol carbamate], in series [1], the ED (doubling of urinary volume) was found to be 3 mg/kg. In series [2], this molecule displayed an LD50 above 2000 mg/kg.

As for `CNc1nc(-c2ccc(Cl)cc2)c(CCO)s1` [LR 861, 2-[2-methylamino-4-(p-chlorophenyl)thiazole-5-yl]ethanol], the ED (doubling of urinary volume) in series [1] was 100 mg/kg. In series [2], this molecule displayed an LD50 of 750 mg/kg.

`NC(=O)NC(=O)OCCc1sc(N)nc1-c1ccc(Cl)cc1` [LR 856] yielded an ED (doubling of urinary volume) in series [1] of 5 mg/kg. In addition, in series [2], the LD50 was above 1000 mg/kg.

`CCN(CC)c1nc(-c2ccc(Cl)cc2)c(CCO)s1` [LR 440, 2-[2-diethylamino-4-(p-chlorophenyl)thiazole-5-yl]ethanol] gave an ED (doubling of urinary volume) in series [1] of 100 mg/kg. Besides, in series [2], the LD50 was above 1000 mg/kg.

`O=C(O)COc1ccc(C(=O)c2cccs2)c(Cl)c1Cl` [Thienyl acid, reference compound]: the ED (doubling of urinary volume) in series [1] amounted to 100 mg/kg. The molecule further returned an LD50 in series [2] of 350 mg/kg.

For the molecule `NC(=O)OCCc1sc(N)nc1-c1ccc(Cl)cc1` [LR 890, 2-[2-amino-4-(p-chlorophenyl)thiazole-5-yl]ethanol carbamate], in series [1], the ED (doubling of urinary volume) came to 3 mg/kg. This molecule showed an LD50 in series [2] above 2000 mg/kg.
